Experimental data reported in ChEMBL document CHEMBL5154675, “Design, Synthesis, and Biological Evaluation of 1-(Indolizin-3-yl)ethan-1-ones as CBP Bromodomain Inhibitors for the Treatment of Prostate Cancer” (J Med Chem, 2022).

Key:
CREB-binding protein [1] = target: T1, CREB-binding protein (Homo sapiens, UniProt Q92793); assay: Inhibition of His6-tagged human CBP bromodomain (1081 to 1197 residues) expressed in Escherichia coli BL21 (DE3) incubated for 30 mins by HTRF assay
Target sequence in this assay (Q92793 whole entry, the tested form may be a part): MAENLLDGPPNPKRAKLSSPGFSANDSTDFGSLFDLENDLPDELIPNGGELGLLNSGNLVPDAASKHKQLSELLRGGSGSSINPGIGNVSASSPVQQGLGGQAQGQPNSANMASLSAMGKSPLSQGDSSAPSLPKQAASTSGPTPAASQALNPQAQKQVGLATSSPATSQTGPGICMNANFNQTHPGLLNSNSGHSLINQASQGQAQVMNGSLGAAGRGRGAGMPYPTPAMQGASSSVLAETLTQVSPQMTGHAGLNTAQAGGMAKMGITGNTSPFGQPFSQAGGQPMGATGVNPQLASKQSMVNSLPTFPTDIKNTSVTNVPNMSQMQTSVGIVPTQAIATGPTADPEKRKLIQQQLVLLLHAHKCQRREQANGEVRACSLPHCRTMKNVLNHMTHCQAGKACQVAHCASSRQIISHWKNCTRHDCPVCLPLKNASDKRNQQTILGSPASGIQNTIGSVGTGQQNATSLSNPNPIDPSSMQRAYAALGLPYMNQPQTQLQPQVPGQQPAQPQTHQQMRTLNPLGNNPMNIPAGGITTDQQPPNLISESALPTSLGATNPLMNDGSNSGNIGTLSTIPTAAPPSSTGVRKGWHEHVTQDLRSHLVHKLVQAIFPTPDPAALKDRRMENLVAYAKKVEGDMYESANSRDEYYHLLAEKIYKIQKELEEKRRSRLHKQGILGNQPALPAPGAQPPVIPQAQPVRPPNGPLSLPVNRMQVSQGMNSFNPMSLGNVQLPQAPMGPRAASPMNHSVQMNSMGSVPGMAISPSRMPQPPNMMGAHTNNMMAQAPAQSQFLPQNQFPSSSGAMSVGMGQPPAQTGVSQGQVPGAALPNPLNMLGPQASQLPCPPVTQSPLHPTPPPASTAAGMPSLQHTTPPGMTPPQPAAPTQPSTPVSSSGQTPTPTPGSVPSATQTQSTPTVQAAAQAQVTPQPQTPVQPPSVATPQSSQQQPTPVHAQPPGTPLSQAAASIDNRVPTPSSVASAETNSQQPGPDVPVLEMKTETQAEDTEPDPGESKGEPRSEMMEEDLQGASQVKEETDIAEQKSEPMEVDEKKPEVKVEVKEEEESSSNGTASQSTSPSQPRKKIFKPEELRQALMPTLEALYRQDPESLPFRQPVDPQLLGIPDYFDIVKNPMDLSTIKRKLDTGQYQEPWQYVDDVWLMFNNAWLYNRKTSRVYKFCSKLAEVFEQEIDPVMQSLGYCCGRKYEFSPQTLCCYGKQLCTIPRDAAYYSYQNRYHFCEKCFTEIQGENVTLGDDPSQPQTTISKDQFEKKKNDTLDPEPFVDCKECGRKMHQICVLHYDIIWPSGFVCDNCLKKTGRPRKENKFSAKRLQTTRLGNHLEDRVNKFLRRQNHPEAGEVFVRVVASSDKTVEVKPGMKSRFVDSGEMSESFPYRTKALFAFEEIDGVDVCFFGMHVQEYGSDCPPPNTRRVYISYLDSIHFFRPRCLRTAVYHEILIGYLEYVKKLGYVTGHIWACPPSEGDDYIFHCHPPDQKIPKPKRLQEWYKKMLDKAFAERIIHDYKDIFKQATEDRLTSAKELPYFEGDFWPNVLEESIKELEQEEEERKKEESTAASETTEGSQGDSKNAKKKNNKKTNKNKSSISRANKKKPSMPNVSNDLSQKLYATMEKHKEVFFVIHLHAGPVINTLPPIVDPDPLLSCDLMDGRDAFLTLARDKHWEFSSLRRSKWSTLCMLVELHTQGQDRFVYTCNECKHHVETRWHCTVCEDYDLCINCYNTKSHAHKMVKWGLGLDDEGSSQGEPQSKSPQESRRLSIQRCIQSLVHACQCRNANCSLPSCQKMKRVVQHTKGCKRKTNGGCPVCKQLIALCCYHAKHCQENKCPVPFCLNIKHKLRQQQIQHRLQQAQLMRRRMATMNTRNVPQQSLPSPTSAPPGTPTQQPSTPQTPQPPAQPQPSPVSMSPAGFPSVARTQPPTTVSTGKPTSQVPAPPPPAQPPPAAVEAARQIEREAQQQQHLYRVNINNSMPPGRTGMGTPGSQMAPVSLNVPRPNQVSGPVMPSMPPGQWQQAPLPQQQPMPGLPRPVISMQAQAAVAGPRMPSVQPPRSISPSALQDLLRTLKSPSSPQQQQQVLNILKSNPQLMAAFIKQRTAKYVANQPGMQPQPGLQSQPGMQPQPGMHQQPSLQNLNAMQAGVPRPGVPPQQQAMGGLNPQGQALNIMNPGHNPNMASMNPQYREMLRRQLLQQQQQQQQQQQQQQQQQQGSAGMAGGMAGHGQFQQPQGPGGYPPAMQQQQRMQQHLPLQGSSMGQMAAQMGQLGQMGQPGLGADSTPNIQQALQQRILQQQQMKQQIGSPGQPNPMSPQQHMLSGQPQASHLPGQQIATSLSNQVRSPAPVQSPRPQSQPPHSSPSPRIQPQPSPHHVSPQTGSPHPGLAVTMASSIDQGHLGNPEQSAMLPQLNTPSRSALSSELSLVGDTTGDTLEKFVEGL

LNCaP C4-2B = assay: Antiproliferative activity against human LNCaP C4-2B cells assessed as inhibition of cell growth by Celltiter-Glo assay; type: functional, cell-based
CREB-binding protein [2] = target: T1, CREB-binding protein; conditions: dose 200.0 µM, time 30.0 min
Target sequence in this assay (Q92793 2-2442 limits assumed): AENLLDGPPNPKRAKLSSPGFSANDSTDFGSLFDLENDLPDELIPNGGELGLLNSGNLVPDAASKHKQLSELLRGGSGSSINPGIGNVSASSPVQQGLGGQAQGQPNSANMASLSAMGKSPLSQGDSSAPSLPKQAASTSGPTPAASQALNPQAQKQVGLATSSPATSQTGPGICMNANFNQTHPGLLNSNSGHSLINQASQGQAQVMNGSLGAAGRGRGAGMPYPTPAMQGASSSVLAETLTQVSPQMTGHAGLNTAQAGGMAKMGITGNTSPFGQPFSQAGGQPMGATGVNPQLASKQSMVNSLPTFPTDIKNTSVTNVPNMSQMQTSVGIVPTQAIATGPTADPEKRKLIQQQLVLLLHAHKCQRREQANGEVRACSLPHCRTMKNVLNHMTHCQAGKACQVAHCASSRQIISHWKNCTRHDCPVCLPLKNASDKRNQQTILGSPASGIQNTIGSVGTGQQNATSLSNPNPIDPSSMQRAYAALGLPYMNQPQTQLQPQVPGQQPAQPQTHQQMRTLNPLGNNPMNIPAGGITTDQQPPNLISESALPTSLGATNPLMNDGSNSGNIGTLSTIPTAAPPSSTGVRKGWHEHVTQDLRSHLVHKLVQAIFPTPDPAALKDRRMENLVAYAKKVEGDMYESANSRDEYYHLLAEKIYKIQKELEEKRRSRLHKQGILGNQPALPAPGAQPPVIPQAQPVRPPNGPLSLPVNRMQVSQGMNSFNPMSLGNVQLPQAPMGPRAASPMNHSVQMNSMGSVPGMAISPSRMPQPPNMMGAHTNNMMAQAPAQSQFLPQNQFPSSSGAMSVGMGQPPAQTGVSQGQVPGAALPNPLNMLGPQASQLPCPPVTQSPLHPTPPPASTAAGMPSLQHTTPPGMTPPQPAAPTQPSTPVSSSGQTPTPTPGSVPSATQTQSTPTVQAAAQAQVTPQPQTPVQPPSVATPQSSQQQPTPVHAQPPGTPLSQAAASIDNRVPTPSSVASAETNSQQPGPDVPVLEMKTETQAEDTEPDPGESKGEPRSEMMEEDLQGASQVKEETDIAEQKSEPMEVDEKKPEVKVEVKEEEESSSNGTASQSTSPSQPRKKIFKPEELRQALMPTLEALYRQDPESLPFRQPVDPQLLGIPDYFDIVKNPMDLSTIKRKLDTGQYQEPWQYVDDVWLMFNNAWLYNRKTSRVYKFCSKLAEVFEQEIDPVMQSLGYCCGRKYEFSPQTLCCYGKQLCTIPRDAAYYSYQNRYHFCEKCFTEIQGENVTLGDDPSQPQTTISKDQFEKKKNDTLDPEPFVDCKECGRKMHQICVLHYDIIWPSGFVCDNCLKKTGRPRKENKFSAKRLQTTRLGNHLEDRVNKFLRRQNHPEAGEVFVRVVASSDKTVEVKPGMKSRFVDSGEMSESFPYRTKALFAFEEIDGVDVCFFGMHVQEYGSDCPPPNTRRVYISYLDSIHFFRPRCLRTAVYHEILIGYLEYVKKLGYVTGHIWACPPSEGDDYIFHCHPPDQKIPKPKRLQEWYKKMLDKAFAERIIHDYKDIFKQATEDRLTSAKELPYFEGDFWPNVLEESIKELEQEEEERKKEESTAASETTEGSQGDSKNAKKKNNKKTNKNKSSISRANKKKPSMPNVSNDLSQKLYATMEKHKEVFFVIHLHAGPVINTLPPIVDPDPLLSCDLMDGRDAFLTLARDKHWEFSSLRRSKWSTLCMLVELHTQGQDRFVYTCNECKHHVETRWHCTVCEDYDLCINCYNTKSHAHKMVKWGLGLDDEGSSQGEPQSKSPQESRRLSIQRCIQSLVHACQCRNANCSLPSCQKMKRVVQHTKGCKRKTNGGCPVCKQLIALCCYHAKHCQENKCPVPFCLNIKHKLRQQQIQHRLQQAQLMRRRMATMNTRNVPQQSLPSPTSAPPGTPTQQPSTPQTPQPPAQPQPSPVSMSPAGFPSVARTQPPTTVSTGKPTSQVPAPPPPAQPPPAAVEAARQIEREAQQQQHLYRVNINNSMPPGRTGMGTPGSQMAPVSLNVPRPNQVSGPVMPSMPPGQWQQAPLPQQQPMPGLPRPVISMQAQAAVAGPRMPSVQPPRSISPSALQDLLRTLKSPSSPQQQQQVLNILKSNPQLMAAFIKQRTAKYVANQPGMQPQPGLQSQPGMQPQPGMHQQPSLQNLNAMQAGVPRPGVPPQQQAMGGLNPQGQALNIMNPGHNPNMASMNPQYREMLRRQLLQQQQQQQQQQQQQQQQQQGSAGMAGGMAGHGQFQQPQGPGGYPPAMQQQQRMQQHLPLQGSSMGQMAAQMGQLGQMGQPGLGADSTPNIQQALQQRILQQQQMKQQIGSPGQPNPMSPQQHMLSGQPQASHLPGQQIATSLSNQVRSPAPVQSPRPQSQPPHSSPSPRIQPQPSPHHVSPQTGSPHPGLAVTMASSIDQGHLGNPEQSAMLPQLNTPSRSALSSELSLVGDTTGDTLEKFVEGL

[3] = Metabolic stability in rat liver microsomes assessed as parent compound remaining at 1 uM incubated for 45 mins in presence of NADPH by LC-MS/MS analysis; type: ADME, Microsome; conditions: read-out: Stability
[4] = Metabolic stability in human liver microsomes assessed as parent compound remaining at 1 uM incubated for 45 mins in presence of NADPH by LC-MS/MS analysis; type: ADME, Microsome; conditions: read-out: Stability
[5] = Half life in rat liver microsomes at 1 uM incubated for 45 mins in presence of NADPH by LC-MS/MS analysis; type: ADME, Microsome
[6] = Half life in human liver microsomes at 1 uM incubated for 45 mins in presence of NADPH by LC-MS/MS analysis; type: ADME, Microsome
[7] = Intrinsic clearance in rat liver microsomes at 1 uM incubated for 45 mins in presence of NADPH by LC-MS/MS analysis; type: ADME, Microsome; conditions: read-out: CLH
[8] = Intrinsic clearance in human liver microsomes at 1 uM incubated for 45 mins in presence of NADPH by LC-MS/MS analysis; type: ADME, Microsome; conditions: read-out: CLH
[9] = Hepatic clearance in human liver microsomes at 1 uM incubated for 45 mins in presence of NADPH by LC-MS/MS analysis; type: ADME, Microsome; conditions: read-out: CLH
[10] = Hepatic clearance in rat liver microsomes at 1 uM incubated for 45 mins in presence of NADPH by LC-MS/MS analysis; type: ADME, Microsome
[11] = Hepatic extraction ratio in human liver microsomes at 1 uM incubated for 45 mins in presence of NADPH by LC-MS/MS analysis; type: ADME, Microsome; conditions: read-out: ERH
in vitro = conditions: rat, liver microsomes
Description: Hepatic extraction ratio in rat liver microsomes at 1 uM incubated for 45 mins in presence of NADPH by LC-MS/MS analysis

CREB-binding protein [12] = target: T1, CREB-binding protein; assay: Binding affinity to His6-tagged human CBP bromodomain (1081 to 1197 residues) expressed in Escherichia coli BL21 (DE3) assessed as dissociation constant by ITC analysis
Target sequence in this assay (Q92793 whole entry, the tested form may be a part): as the sequence (Q92793 whole entry, the tested form may be a part) above

[13] = Apparent permeability across apical to basolateral side in human Caco-2 cells at 10 uM measured after 2 hrs by LC-MS/MS analysis; type: ADME, cell-based
[14] = Apparent permeability across basolateral to apical side in human Caco-2 cells assessed as drug recovery at 10 uM measured after 2 hrs by LC-MS/MS analysis; type: ADME, cell-based; conditions: read-out: Drug recovery
[15] = Apparent permeability across basolateral to apical side in human Caco-2 cells at 10 uM measured after 2 hrs by LC-MS/MS analysis; type: ADME, cell-based
[16] = Apparent permeability across apical to basolateral side in human Caco-2 cells assessed as drug recovery at 10 uM measured after 2 hrs by LC-MS/MS analysis; type: ADME, cell-based; conditions: read-out: Drug recovery
LNCaP = assay: Antiproliferative activity against human LNCaP cells assessed as cell growth inhibition by Celltiter-Glo assay; type: functional, cell-based
CWR22R = assay: Antiproliferative activity against human 22Rv1 cells assessed as cell growth inhibition by Celltiter-Glo assay; type: functional, cell-based
[17] = target: Histone acetyltransferase p300 (Homo sapiens) (UniProt Q09472); conditions: dose 200.0 µM, time 30.0 min
[18] = target: PH-interacting protein (Homo sapiens) (UniProt Q8WWQ0); conditions: dose 200.0 µM, time 30.0 min
[19] = target: Chromatin remodeling regulator CECR2 (Homo sapiens) (UniProt Q9BXF3); conditions: dose 200.0 µM, time 30.0 min
[20] = target: Bromodomain adjacent to zinc finger domain protein 2B (Homo sapiens) (UniProt Q9UIF8); conditions: dose 200.0 µM, time 30.0 min
[21] = target: Histone acetyltransferase KAT2B (Homo sapiens) (UniProt Q92831); conditions: dose 200.0 µM, time 30.0 min
[22] = target: T2, Bromodomain-containing protein 4 (Homo sapiens, UniProt O60885); conditions: dose 200.0 µM, time 30.0 min
[23] = target: T2, Bromodomain-containing protein 4; conditions: dose 200.0 µM, time 30.0 min; remark: listed apart in the source
[24] = target: T3, Bromodomain-containing protein 3 (Homo sapiens, UniProt Q15059); conditions: dose 200.0 µM, time 30.0 min
[25] = target: T3, Bromodomain-containing protein 3; conditions: dose 200.0 µM, time 30.0 min; remark: listed apart in the source
[26] = target: T4, Bromodomain-containing protein 2 (Homo sapiens, UniProt P25440); conditions: dose 200.0 µM, time 30.0 min
[27] = target: T4, Bromodomain-containing protein 2; conditions: dose 200.0 µM, time 30.0 min; remark: listed apart in the source
[28] = target: T5, Bromodomain testis-specific protein (Homo sapiens, UniProt Q58F21); conditions: dose 200.0 µM, time 30.0 min
[29] = target: T5, Bromodomain testis-specific protein; conditions: dose 200.0 µM, time 30.0 min; remark: listed apart in the source
[30] = target: SWI/SNF-related matrix-associated actin-dependent regulator of chromatin subfamily A member 2 (Homo sapiens) (UniProt P51531); conditions: dose 200.0 µM, time 30.0 min
[31] = target: T6, Bromodomain-containing protein 9 (Homo sapiens) (UniProt Q9H8M2); conditions: dose 200.0 µM, time 30.0 min
T6 sequence (whole entry): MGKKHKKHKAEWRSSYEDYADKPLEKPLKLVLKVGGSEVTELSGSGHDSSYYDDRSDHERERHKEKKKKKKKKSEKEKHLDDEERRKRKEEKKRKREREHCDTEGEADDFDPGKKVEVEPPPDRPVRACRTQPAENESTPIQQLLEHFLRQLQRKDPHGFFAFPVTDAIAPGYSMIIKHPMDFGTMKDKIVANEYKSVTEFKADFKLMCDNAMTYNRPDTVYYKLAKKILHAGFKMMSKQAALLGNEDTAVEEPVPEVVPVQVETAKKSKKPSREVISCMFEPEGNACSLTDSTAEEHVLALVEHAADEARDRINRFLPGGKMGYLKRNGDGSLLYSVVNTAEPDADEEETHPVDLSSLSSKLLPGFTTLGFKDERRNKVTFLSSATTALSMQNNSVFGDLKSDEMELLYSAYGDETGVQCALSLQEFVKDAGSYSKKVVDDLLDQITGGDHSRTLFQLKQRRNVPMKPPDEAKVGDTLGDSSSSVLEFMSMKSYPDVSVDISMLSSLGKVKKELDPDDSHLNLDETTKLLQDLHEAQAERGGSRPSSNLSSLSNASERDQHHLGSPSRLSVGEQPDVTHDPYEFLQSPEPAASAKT

In the case of `CC(=O)c1cc(C(=O)Nc2cc(CO)cc(-c3cnn(C)c3)c2F)c2cc(OC(=O)C(C)(C)C)ccn12`, the IC50 (CREB-binding protein [1]) is reported as 0.042 µM, the IC50 (LNCaP C4-2B) is reported as 29.6 µM and the ΔTm (CREB-binding protein [2]) is reported as 6 °C.

`CC(C)C(=O)c1cc(C(=O)Nc2cc(CO)cc(-c3cnn(C)c3)c2F)c2cc(O)ccn12` showed an IC50 (LNCaP C4-2B) of 37 µM and a ΔTm (CREB-binding protein [2]) of 1.8 °C.

Compound `COc1ccn2c(C(C)=O)cc(C(=O)Nc3cc(Cl)cc(-c4cnn(C)c4)c3F)c2c1` has an IC50 (CREB-binding protein [1]) of 0.0552 µM, an IC50 (LNCaP C4-2B) of 9.28 µM and a ΔTm (CREB-binding protein [2]) of 6 °C.

With `Cc1ncc2n1-c1ccc(Cl)cc1C(c1ccccc1F)=NC2` [MIDAZOLAM] the remaining at 0.75 h, 1 µM [3] was 4.5%, the remaining at 0.75 h, 1 µM [4] was 0.55% and the half-life at 1 µM [5] was 1.85 min. For the same compound, the half-life at 1 µM [6] was 3.07 min, the CLint scaled at 1 µM [7] was 750 mL/min/kg and the CLint scaled at 1 µM [8] was 452 mL/min/kg. The CLint scaled at 1 µM [9] was 19.9 mL/min/kg, the CLhep predicted at 1 µM [10] was 53 mL/min/kg and the hepatic extraction ratio at 0.75 h, 1 µM [11] was 0.962. The hepatic extraction ratio at 0.75 h, 1 µM (in vitro) was 0.961.

`CC(=O)c1cc(C(=O)Nc2cc(CO)cc(-c3cnn(C)c3)c2F)c2cc(O)ccn12` gave a Kd (CREB-binding protein [12]) of 0.044 µM, an IC50 (LNCaP C4-2B) of 34.2 µM and a ΔTm (CREB-binding protein [2]) of 12.6 °C.

Work on `COc1ccn2c(C(C)=O)cc(C(=O)Nc3cc(C=O)cc(-c4cnn(C)c4)c3F)c2c1` yielded an IC50 (CREB-binding protein [1]) of 0.013 µM, an IC50 (LNCaP C4-2B) of 17.4 µM and a ΔTm (CREB-binding protein [2]) of 5.4 °C.

With `C[C@H]1O[C@@H](O[C@H]2[C@@H](O)C[C@H](O[C@H]3[C@@H](O)C[C@H](O[C@H]4CC[C@@]5(C)[C@H](CC[C@@H]6[C@@H]5C[C@@H](O)[C@]5(C)[C@@H](C7=CC(=O)OC7)CC[C@]65O)C4)O[C@@H]3C)O[C@@H]2C)C[C@H](O)[C@@H]1O` [DIGOXIN] the Papp A→B at 2 h, 10 µM [13] was 1.26 ×10⁻⁶ cm/s and the recovery at 2 h, 10 µM [14] was 92.7%.

For `CC(=O)c1cc(C(=O)Nc2cc(C(C)O)cc(-c3cnn(C4CC4)c3)c2F)c2cc(O)ccn12` (configuration not stated), the IC50 (CREB-binding protein [1]) was 0.079 µM, the IC50 (LNCaP C4-2B) was 42 µM and the ΔTm (CREB-binding protein [2]) was 12 °C.

For `CNc1ccn2c(C(C)=O)cc(C(=O)Nc3cc(CO)cc(-c4cnn(C)c4)c3F)c2c1`, the IC50 (CREB-binding protein [1]) was 0.0021 µM, the IC50 (LNCaP C4-2B) was > 50 µM and the ΔTm (CREB-binding protein [2]) was 9.9 °C.

`CC(=O)c1cc(C(=O)Nc2cc(CO)cc(-c3cnn(C4CC4)c3)c2F)c2cc(N)ccn12` gave an IC50 (CREB-binding protein [1]) of 0.00296 µM, an IC50 (LNCaP C4-2B) of 8.66 µM and a ΔTm (CREB-binding protein [2]) of 10.5 °C.

Work on `CC(C)NCC(O)COc1cccc2ccccc12` (configuration not stated) [PROPRANOLOL] yielded a Papp A→B at 2 h, 10 µM [13] of 28.3 ×10⁻⁶ cm/s, a Papp B→A at 2 h, 10 µM [15] of 18.9 ×10⁻⁶ cm/s and a recovery at 2 h, 10 µM [16] of 85%. For the same compound, the recovery at 2 h, 10 µM [14] was 90.7%.

`CC(=O)c1cc(C(=O)Nc2cc(CO)cc(-c3cnn(C)c3)c2F)c2cc(CN)ccn12` gave an IC50 (CREB-binding protein [1]) of 0.0556 µM, an IC50 (LNCaP C4-2B) of 13.4 µM and a ΔTm (CREB-binding protein [2]) of 8.7 °C.

`C[C@@H]1CC(=O)Nc2cccc(-c3ccc4c(c3)c(-c3cnn(C)c3)nn4C)c2N1` showed an IC50 (CREB-binding protein [1]) of 0.014 µM, a Kd (CREB-binding protein [12]) of 0.068 µM and an IC50 (LNCaP C4-2B) of 3.35 µM. It also gave an IC50 (LNCaP) of 0.65 µM, an IC50 (CWR22R) of 3.13 µM and a ΔTm (CREB-binding protein [2]) of 14.3 °C. It also gave a ΔTm [17] of 15.5 °C, a ΔTm [18] of 0 °C and a ΔTm [19] of -0.2 °C. For the same compound, the ΔTm [20] was -0.2 °C, the ΔTm [21] was -0.2 °C and the ΔTm [22] was 5 °C. For the same compound, the ΔTm [23] was 0 °C, the ΔTm [24] was 1.5 °C and the ΔTm [25] was 1 °C. The ΔTm [26] was 1.3 °C, the ΔTm [27] was 1 °C and the ΔTm [28] was 1.8 °C. The ΔTm [29] was -0.5 °C, the ΔTm [30] was -0.3 °C and the ΔTm [31] was 7 °C.

With `COC(=O)c1cc(NC(=O)c2cc(C(C)=O)n3ccc(OC)cc23)c(F)c(-c2cnn(C)c2)c1` the IC50 (LNCaP C4-2B) was > 50 µM and the ΔTm (CREB-binding protein [2]) was 3.3 °C.

Compound `Cn1cc(-c2cc(CO)cc(NC(=O)c3cc(C(=O)C(C)(C)C)n4ccc(O)cc34)c2F)cn1` has an IC50 (LNCaP C4-2B) of 33.9 µM and a ΔTm (CREB-binding protein [2]) of 0.9 °C.
